System: P815 cells
Assay: FACS analysis of hexa-histidine-tagged B7.1 and CD40 engrafted onto P815 cells via incorporated lipid
Format: cell-based, murine
Settings: 0.1 mM lipid 30 min 37° C., then 6His B7.1 and CD40 each ~20 μg/ml, streptavidin-FITC
Experimental: FIG. 2 is the fluorescence profile, as measured by fluorescence-activated cell sorting, of p815 cells engrafted with biotinylated and hexa-histidine-tagged CD40 and B7.1 molecules and then stained with streptavidin-FITC.
Cultured P815 tumor cells were washed twice in PBS to remove proteins from the culture media and suspended to 1×10^7 cells/ml in PBS. The cells were then aliquoted into 96-well V-bottom Seroeluster plates (Costar, Corning, N.Y.) at […] and incubated with 125 μM NTA-DTDA (alone or as a mixture with other lipids as indicated) or 125 μM DMPC (control) in PBS containing 125 μM Zn^2+, for 40 min at 37° C. […] The relative level of NTA-DTDA incorporated was routinely assessed by FACS analysis (see below) after incubating the cells with biotinylated 6His peptide (B-6His) (0.2 μg/ml) for 30 min at 4° C., washing twice with PBS-0.1% v/v BSA, and then staining with streptavidin-FITC. The cells were incubated with streptavidin-FITC (33 μg/ml) in PBS containing 1% v/v BSA (PBS-1% v/v-BSA) for 30 min at 4° C., washed three times with PBS-1% v/v BSA, fixed with 2% v/v paraformaldehyde in PBS, and then analyzed for FITC-fluorescence by FACS. […]
The histograms in FIG. 2 show fluorescence-activated cell sorting (FACS) profiles of murine mastocytoma P815 cells carrying engrafted recombinant hexa-histidine-tagged murine B7.1 and CD40. […]

Structure (SMILES)	fluorescence of P815 cells relative to cells pre-incubated with DMPC (Control) (biotinylated anti-B7.1 or anti-CD40 mAb)	level of fluorescence after staining with either monoclonal antibody (biotinylated mAb)
CCCCCCCCCCCCCCN(CCCCCCCCCCCCCC)C(=O)CCC(=O)NCCCC[C@@H](C(=O)O)N(CC(=O)O)CC(=O)O [NTA-DTDA, N^α,N^αbis[carboxymethyl]-N^ε[(DTDA)suc]-L lysine]	10-100 fold	–
CCCCCCCCCCCCCC(=O)OC[C@H](COP(=O)([O-])OCC[N+](C)(C)C)OC(=O)CCCCCCCCCCCCC [DMPC, di-myristoyl-phosphatidylcholine]	–	low level of fluorescence

Source: patent US20100143456A1, “MODEL MEMBRANE SYSTEMS” (priority 1999, published 2010)
